Laboratory results taken from ChEMBL document CHEMBL1122495, “Ultra-short-acting beta-adrenergic receptor blocking agents. 3. Ethylenediamine derivatives of (aryloxy)propanolamines having esters on the aryl function” (J Med Chem, 1983).

Organism: Cavia porcellus
Assay: Negative log concentration effecting 50% blockade of isoproterenol-induced rate responses in vitro in guinea pig right atria.
Format: functional
Details: read-out: pA2 (converted)

Going from COC(=O)c1ccccc1OCC(O)CNCCNC(=O)Cc1ccccc1 (configuration not stated) to COC(=O)c1ccccc1OCC(O)CNCCNC(=O)Nc1ccccc1 (configuration not stated), the Kb rises from 5.01 nM to 7.94 nM (1.6-fold).

Going from COC(=O)c1ccccc1OCC(O)CNCCNS(=O)(=O)N(C)C (configuration not stated) to COC(=O)c1ccccc1OCC(O)CNCCNC(C)=O (configuration not stated), the Kb rises from 31.6 nM to 50.1 nM (1.6-fold).

CCOC(=O)N1CCC(=NCC(O)COc2ccccc2C(=O)OC)CC1 (configuration not stated) and COC(=O)c1ccccc1OCC(O)CN=C1CCN(C=O)CC1 (configuration not stated) cannot be ordered by Kb: greater than 1000 nM for the first, greater than 1000 nM for the second.

Going from COC(=O)CCc1ccccc1OCC(O)CNCCNC(=O)C(C)C (configuration not stated) to COC(=O)c1ccccc1OCC(O)CNCCNC(=O)C(C)C (configuration not stated), the Kb falls from 25.1 nM to 7.94 nM (3.2-fold).

Compared with COC(=O)c1ccccc1OCC(O)CNC(C)(C)CNC(N)=O (configuration not stated), CCOC(=O)c1ccccc1OCC(O)CNC(C)(C)CNC(N)=O (configuration not stated) is 10-fold lower in Kb: 1.26 nM for the first, 0.126 nM for the second.

First: COC(=O)c1ccccc1OCC(O)CNCCNS(=O)(=O)c1ccc(C)cc1 (configuration not stated)
Second: COC(=O)c1ccccc1OCC(O)CNCCNc1ccc([N+](=O)[O-])cn1 (configuration not stated)
The Kb of the first is 5-fold higher: 158 nM for the first, 31.6 nM for the second.

First: COC(=O)c1ccccc1OCC(O)CNC(C)(C)CNC(=O)N1CCOCC1 (configuration not stated)
Second: CCOC(=O)NCC(C)(C)NCC(O)COc1ccccc1C(=O)OC (configuration not stated)
The Kb of the first is 13-fold lower: 0.2 nM for the first, 2.51 nM for the second.

Compared with COC(=O)c1ccccc1OCC(O)CNCc1nc2ccccc2[nH]1 (configuration not stated), COC(=O)c1ccccc1OCC(O)CNCCNc1cc(Cl)c2ccccc2c1O (configuration not stated) is 2-fold higher in Kb: 316 nM for the first, 631 nM for the second.

First: COC(=O)/C=C/c1ccccc1OCC(O)CNCCNC(=O)C(C)C (configuration not stated)
Second: Cc1ccccc1OCC(O)CNCCNC(=O)C(C)C (configuration not stated)
The Kb of the first is 13-fold lower: 0.398 nM for the first, 5.01 nM for the second.

Compared with COC(=O)c1ccccc1OCC(O)CNC(C)C (configuration not stated), Cc1ccccc1OCC(O)CNC(C)C (configuration not stated) is 2-fold lower in Kb: 5.01 nM for the first, 2.51 nM for the second.

Work on CCOC(=O)c1ccccc1OCC(O)CNCCNC(=O)C(C)C (configuration not stated) yielded a Kb of 3.16 nM.

Organism: Cavia porcellus
Assay: No blockade was observed at 10 e-6 M in guinea pig right atria (In vitro)
Format: functional
Details: read-out: pA2 (converted)

COC(=O)c1ccc(OCC(O)CNCCN2CCCC2)cc1 (configuration not stated) and COC(=O)c1ccc(OCC(O)CNCCN2CCCCC2)cc1 (configuration not stated) cannot be ordered by Kb: greater than 1000 nM for the first, greater than 1000 nM for the second.

Work on COC(=O)c1ccc(OCC(O)CNCCN2CCOCC2)cc1 (configuration not stated) yielded a Kb greater than 1000 nM.

Organism: Cavia porcellus
Assay: Inhibition of isoproterenol-induced responses in guinea pig trachea.
Format: functional
Details: read-out: pA2 (converted)

First: COC(=O)c1ccccc1OCC(O)CNCCNC(=O)Cc1ccccc1 (configuration not stated)
Second: COC(=O)c1ccccc1OCC(O)CNCCNC(=O)Nc1ccccc1 (configuration not stated)
The Kb of the first is 10-fold lower: 20 nM for the first, 200 nM for the second.

Going from COC(=O)c1ccccc1OCC(O)CNC(C)(C)CNS(=O)(=O)c1ccccc1 (configuration not stated) to COC(=O)c1ccccc1OCC(O)CNC(C)(C)CNC(N)=O (configuration not stated), the Kb rises from 1.58 nM to 3.16 nM (2-fold).

Compared with COC(=O)c1ccccc1OCC(O)CNCCNS(=O)(=O)N(C)C (configuration not stated), COC(=O)c1ccccc1OCC(O)CNCCNC(C)=O (configuration not stated) is 2-fold higher in Kb: 50.1 nM for the first, 100 nM for the second.

First: COC(=O)CCc1ccccc1OCC(O)CNCCNC(=O)C(C)C (configuration not stated)
Second: COC(=O)c1ccccc1OCC(O)CNCCNC(=O)C(C)C (configuration not stated)
The Kb of the first is 1.6-fold lower: 20 nM for the first, 31.6 nM for the second.

COC(=O)c1ccccc1OCC(O)CNCCNS(=O)(=O)c1ccc(C)cc1 (configuration not stated) and COC(=O)c1ccccc1OCC(O)CNCCNc1ccc([N+](=O)[O-])cn1 (configuration not stated) are the same in Kb: 79.4 nM for the first, 79.4 nM for the second.

Compared with CCOC(=O)c1ccccc1OCC(O)CNC(C)(C)CNC(N)=O (configuration not stated), CCOC(=O)NCC(C)(C)NCC(O)COc1ccccc1C(=O)OC (configuration not stated) is 13-fold higher in Kb: 0.501 nM for the first, 6.31 nM for the second.

Going from COC(=O)c1ccccc1OCC(O)CNC(C)(C)CNC(=O)N1CCOCC1 (configuration not stated) to COC(=O)c1ccccc1OCC(O)CNC(C)C (configuration not stated), the Kb rises from 1 nM to 12.6 nM (13-fold).

Compared with COC(=O)/C=C/c1ccccc1OCC(O)CNCCNC(=O)C(C)C (configuration not stated), Cc1ccccc1OCC(O)CNCCNC(=O)C(C)C (configuration not stated) is 25-fold higher in Kb: 0.794 nM for the first, 20 nM for the second.

Compared with COC(=O)c1ccccc1OCC(O)CNCCc1ccc(OC)c(OC)c1 (configuration not stated), CCOC(=O)c1ccccc1OCC(O)CNCCNC(=O)C(C)C (configuration not stated) is 4-fold lower in Kb: 79.4 nM for the first, 20 nM for the second.

Going from COC(=O)c1ccc(OCC(O)CNC(C)C)cc1 (configuration not stated) to Cc1ccccc1OCC(O)CNC(C)C (configuration not stated), the Kb falls from 3160 nM to 6.31 nM (500-fold).

Organism: Cavia porcellus
Assay: Cardioselectivity determined (Antilog [pA2 (atria) - pA2 (trachea)] )
Details: not given

Compared with COC(=O)c1ccccc1OCC(O)CNCCNC(=O)Cc1ccccc1 (configuration not stated), COC(=O)c1ccccc1OCC(O)CNCCNC(=O)Nc1ccccc1 (configuration not stated) is higher in Selectivity: 4 for the first, 25.1 for the second.

Going from COC(=O)c1ccccc1OCC(O)CNC(C)(C)CNC(N)=O (configuration not stated) to CCOC(=O)c1ccccc1OCC(O)CNC(C)(C)CNC(N)=O (configuration not stated), the Selectivity rises from 2.5 to 4.

First: COC(=O)c1ccccc1OCC(O)CNC(C)(C)CNC(=O)N1CCOCC1 (configuration not stated)
Second: CCOC(=O)NCC(C)(C)NCC(O)COc1ccccc1C(=O)OC (configuration not stated)
The Selectivity of the first is higher: 5 for the first, 2.5 for the second.

Compared with COC(=O)c1ccccc1OCC(O)CNCCNC(C)=O (configuration not stated), COC(=O)c1ccccc1OCC(O)CNCCNC(=O)C(C)C (configuration not stated) is higher in Selectivity: 2 for the first, 4 for the second.

First: COC(=O)/C=C/c1ccccc1OCC(O)CNCCNC(=O)C(C)C (configuration not stated)
Second: Cc1ccccc1OCC(O)CNCCNC(=O)C(C)C (configuration not stated)
The Selectivity of the first is lower: 2 for the first, 4 for the second.

COC(=O)c1ccccc1OCC(O)CNC(C)C (configuration not stated) and Cc1ccccc1OCC(O)CNC(C)C (configuration not stated) are the same in Selectivity: 2.5 for the first, 2.5 for the second.

First: CCOC(=O)c1ccccc1OCC(O)CNCCNC(=O)C(C)C (configuration not stated)
Second: COC(=O)c1ccccc1OCC(O)CNCCNc1ccc([N+](=O)[O-])cn1 (configuration not stated)
The Selectivity of the first is higher: 6.3 for the first, 2.5 for the second.

Each compound was assayed on Canis lupus familiaris (assay: Time for 80% recovery from 50% blockade levels after 3-h infusions of drug(in vivo)). Details: not given.

First: COC(=O)c1ccccc1OCC(O)CNCCNC(=O)Cc1ccccc1 (configuration not stated)
Second: COC(=O)c1ccccc1OCC(O)CNCCNC(C)=O (configuration not stated)
The Duration of the first is 2.3-fold higher: 42 min for the first, 18 min for the second.

COC(=O)c1ccccc1OCC(O)CNCCNS(=O)(=O)N(C)C (configuration not stated) and COC(=O)c1ccccc1OCC(O)CNCCNC(=O)C(C)C (configuration not stated) are within 1.5-fold of each other in Duration: 15 min for the first, 17 min for the second.

COC(=O)c1ccccc1OCC(O)CNC(C)C (configuration not stated) and COC(=O)c1ccccc1OCC(O)CNC(C)(C)C (configuration not stated) are within 1.5-fold of each other in Duration: 15 min for the first, 22 min for the second.

Going from COC(=O)c1ccccc1OCC(O)CNCCc1ccc(OC)c(OC)c1 (configuration not stated) to COC(=O)c1ccccc1OCC(O)CNCCNc1ccc([N+](=O)[O-])cn1 (configuration not stated), the Duration falls from 30 min to 15 min (2-fold).

CCOC(=O)c1ccccc1OCC(O)CNCCNC(=O)C(C)C (configuration not stated) and CCOC(=O)NCC(C)(C)NCC(O)COc1ccccc1C(=O)OC (configuration not stated) are within 1.5-fold of each other in Duration: 40 min for the first, 30 min for the second.

With COC(=O)c1ccccc1OCC(O)CNC(C)(C)CNC(N)=O (configuration not stated) the Duration was greater than 60 min.

What follows are compounds tested on Cavia porcellus (assay: Less than 80% recovery from 50% blockade levels after 3-h infusions of drug(in vivo)). Details: not given.

For COC(=O)CCc1ccccc1OCC(O)CNCCNC(=O)C(C)C (configuration not stated), the Duration was greater than 60 min.
For CCOC(=O)c1ccccc1OCC(O)CNC(C)(C)CNC(N)=O (configuration not stated), the Duration was greater than 60 min.
For COC(=O)c1ccccc1OCC(O)CNC(C)(C)CNC(=O)N1CCOCC1 (configuration not stated), the Duration was greater than 60 min.
COC(=O)/C=C/c1ccccc1OCC(O)CNCCNC(=O)C(C)C (configuration not stated) gave a Duration greater than 60 min.
With COC(=O)c1ccccc1OCC(O)CNCCNC(=O)Nc1ccccc1 (configuration not stated) the Duration was greater than 60 min.
For Cc1ccccc1OCC(O)CNCCNC(=O)C(C)C (configuration not stated), the Duration was greater than 60 min.
With Cc1ccccc1OCC(O)CNC(C)C (configuration not stated) the Duration was greater than 60 min.
For CC(C)NCC(O)COc1cccc2ccccc12 (configuration not stated) [PROPRANOLOL], the Duration was greater than 60 min.
